This note sets out measurements from patent US8022206B2 (OSI Pharmaceuticals, LLC, priority 2008, dated 2011).

In general, IC50 refers to the concentration that gives 50% inhibition.

For assay [1], the target named is RON (human) (Homo sapiens, UniProt Q04912). Kind of assay: RON (human) AlphaScreen kinase assay, Km of ATP. It counts as biochemical. To be noted: AlphaScreen, Km of ATP; read-out: RON biochemical IC50. In a few lines:
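Reaction was started with enzyme and run 30 min at RT. PT66 donor/acceptor beads in an EDTA-containing Tris pH 7.5 buffer were then added, and the signal was read after 1 h.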
A general note: In Alpha technology, singlet oxygen from a donor bead excites a nearby acceptor bead.

In assay [2] the target is MET (human) (Homo sapiens, UniProt P08581). Kind of assay: MET (human) AlphaScreen kinase assay, Km of ATP. It is filed as biochemical. The following applies: AlphaScreen, Km of ATP; read-out: Met biochemical IC50. The procedure, abridged:
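Human MET at lot-optimised concentration in 50 mM Tris pH 7.4 buffer with 1 mM DTT, compound at 1% DMSO final; enzyme starts the reaction, 60 min at RT.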

Chain of RON (human) (Q04912 25-1400): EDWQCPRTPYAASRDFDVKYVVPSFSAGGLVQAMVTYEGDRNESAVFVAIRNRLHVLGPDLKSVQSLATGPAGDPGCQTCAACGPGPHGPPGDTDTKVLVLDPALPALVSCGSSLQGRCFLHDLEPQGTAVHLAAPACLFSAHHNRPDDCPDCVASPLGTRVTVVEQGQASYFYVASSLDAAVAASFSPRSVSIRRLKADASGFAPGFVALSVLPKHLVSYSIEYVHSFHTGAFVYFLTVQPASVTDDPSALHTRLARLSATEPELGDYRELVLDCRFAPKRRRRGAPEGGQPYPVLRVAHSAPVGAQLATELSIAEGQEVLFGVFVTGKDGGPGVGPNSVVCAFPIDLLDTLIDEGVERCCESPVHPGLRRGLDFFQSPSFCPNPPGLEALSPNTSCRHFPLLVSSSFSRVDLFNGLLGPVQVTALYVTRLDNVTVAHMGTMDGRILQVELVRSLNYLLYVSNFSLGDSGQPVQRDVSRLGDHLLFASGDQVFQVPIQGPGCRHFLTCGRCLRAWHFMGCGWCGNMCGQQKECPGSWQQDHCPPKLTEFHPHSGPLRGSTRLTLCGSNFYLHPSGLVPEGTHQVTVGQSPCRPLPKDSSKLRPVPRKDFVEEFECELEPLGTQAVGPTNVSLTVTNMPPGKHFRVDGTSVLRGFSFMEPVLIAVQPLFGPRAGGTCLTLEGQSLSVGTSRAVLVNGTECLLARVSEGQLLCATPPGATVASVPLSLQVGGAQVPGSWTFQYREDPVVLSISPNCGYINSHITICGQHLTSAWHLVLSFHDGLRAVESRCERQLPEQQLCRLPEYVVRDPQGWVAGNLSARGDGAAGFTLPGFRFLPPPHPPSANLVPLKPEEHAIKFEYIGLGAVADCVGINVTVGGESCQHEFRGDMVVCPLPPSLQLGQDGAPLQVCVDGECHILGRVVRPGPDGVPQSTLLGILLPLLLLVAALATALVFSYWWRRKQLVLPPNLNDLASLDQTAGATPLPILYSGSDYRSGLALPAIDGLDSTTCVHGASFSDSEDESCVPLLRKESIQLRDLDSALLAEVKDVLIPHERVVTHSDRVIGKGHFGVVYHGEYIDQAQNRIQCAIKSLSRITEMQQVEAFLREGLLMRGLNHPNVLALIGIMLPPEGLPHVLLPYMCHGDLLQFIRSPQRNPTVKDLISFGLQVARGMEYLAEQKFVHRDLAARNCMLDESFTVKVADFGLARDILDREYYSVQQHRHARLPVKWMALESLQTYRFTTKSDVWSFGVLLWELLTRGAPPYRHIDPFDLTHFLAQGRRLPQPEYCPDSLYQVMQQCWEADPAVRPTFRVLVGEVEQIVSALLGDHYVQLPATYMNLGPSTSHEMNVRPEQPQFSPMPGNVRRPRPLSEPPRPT
Chain of MET (human) (P08581 25-1390): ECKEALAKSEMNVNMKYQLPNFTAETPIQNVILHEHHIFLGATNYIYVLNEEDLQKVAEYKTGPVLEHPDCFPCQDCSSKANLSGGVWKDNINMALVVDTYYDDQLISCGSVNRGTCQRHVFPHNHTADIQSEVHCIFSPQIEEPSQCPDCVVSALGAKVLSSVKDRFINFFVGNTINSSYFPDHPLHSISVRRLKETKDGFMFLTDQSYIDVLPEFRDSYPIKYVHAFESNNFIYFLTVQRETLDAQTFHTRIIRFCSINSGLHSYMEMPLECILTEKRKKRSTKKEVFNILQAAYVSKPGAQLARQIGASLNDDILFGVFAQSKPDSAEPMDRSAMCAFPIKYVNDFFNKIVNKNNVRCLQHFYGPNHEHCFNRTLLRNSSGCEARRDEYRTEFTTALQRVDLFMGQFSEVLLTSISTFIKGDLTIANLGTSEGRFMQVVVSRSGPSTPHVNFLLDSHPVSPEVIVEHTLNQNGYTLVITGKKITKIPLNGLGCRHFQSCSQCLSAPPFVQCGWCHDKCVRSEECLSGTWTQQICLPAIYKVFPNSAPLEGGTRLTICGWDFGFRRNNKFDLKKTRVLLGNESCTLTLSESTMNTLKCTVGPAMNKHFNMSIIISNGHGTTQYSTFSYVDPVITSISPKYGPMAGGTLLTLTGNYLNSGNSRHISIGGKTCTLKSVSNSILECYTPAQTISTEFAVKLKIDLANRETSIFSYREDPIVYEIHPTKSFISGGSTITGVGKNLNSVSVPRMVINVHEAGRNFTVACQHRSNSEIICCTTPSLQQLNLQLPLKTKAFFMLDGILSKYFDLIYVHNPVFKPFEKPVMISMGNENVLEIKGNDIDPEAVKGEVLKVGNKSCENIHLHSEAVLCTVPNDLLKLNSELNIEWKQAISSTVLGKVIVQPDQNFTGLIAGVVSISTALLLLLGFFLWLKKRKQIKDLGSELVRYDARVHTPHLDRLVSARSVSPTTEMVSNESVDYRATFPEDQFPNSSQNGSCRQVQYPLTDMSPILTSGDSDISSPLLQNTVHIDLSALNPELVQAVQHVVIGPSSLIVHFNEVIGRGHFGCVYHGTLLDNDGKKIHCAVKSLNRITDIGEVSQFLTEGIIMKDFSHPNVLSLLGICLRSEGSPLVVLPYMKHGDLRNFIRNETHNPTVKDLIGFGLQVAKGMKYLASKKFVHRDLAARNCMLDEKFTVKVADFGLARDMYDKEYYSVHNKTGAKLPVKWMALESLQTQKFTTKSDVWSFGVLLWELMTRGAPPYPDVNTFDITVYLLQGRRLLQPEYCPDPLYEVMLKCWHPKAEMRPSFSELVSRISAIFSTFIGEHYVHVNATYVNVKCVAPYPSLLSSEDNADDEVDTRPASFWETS

Take `CC(Oc1c(N)ncc2c(-c3cnn(C4CCNCC4)c3)coc12)c1cc(F)cc(-c2ccccc2)c1` (stereo not drawn) [Example 449, 7-[1-(5-Fluorobiphenyl-3-yl)ethoxy]-3-(1-piperidin-4-yl-1H-pyrazol-4-yl)furo[3,2-c]pyridin-6-ylamine]: the IC50 in assay [1] and in assay [2] was 500 to 5000 nM each time.

In the case of `COc1ccc(CC(C)Oc2c(N)ncc3c(-c4cnn(C5CCNCC5)c4)coc23)cc1` (stereo not drawn) [Example 431, 7-[2-(4-Methoxyphenyl)-1-methylethoxy]-3-(1-piperidin-4-yl-1H-pyrazol-4-yl)furo[3,2-c]pyridin-6-ylamine], the IC50 in assay [1] and in assay [2] was 500 to 5000 nM in each case.

Take `C[C@@H](Oc1c(N)ncc2c(C3=CC4CCC(C3)N4C)coc12)c1c(Cl)ccc(F)c1Cl` (stereo partly drawn) [Example 164, 7-[(1R)-1-(2,6-Dichloro-3-fluorophenyl)ethoxy]-3-(8-methyl-8-azabicyclo[3.2.1]oct-2-en-3-yl)furo[3,2-c]pyridin-6-amine]: the half-inhibitory concentration (IC50) in assay [1] and in assay [2] was less than 500 nM in each case.

In the case of `C[C@@H](Oc1c(N)ncc2c(C(=O)NCCCN(C)C)coc12)c1c(Cl)ccc(F)c1Cl` [Example 189, 6-Amino-7-[(R)-1-(2,6-dichloro-3-fluorophenyl)ethoxy]furo[3,2-c]pyridine-3-carboxylic acid (3-dimethylaminopropyl)amide], the IC50 was 500 to 5000 nM in assay [1] and less than 500 nM in assay [2].

`CC(Oc1c(N)ncc2c(-c3cnn(C4CCNCC4)c3)coc12)c1cc(F)cc(-c2cnn(C)c2)c1` (stereo not drawn) [Example 452, 7-{1-[3-Fluoro-5-(1-methyl-1H-pyrazol-4-yl)phenyl]ethoxy}-3-(1-piperidin-4-yl-1H-pyrazol-4-yl)furo[3,2-c]pyridin-6-ylamine]: the 50% inhibitory concentration (IC50) is 500 to 5000 nM in assay [1] and less than 500 nM in assay [2].

As to `C[C@@H](Oc1c(N)ncc2c(-c3ccc[nH]3)coc12)c1c(Cl)ccc(F)c1Cl` [Example 133, 7-[(R)-1-(2,6-Dichloro-3-fluorophenyl)ethoxy]-3-(1H-pyrrol-2-yl)furo[3,2-c]pyridin-6-amine], the IC50 in assay [1] and in assay [2] was 500 to 5000 nM throughout.

Turning to `CC(C)CC(Oc1c(N)ncc2c(-c3cnn(C4CCNCC4)c3)coc12)c1c(Cl)ccc(F)c1Cl` (stereo not drawn) [Example 366, 7-[1-(2,6-Dichloro-3-fluorophenyl)-3-methylbutoxy]-3-(1-piperidin-4-yl-1H-pyrazol-4-yl)furo[3,2-c]pyridin-6-ylamine], the 50% inhibitory concentration (IC50) in assay [1] and in assay [2] was 500 to 5000 nM in each case.

For `CC(C)N1CC=C(c2coc3c(O[C@H](C)c4c(Cl)ccc(F)c4Cl)c(N)ncc23)CC1` [Example 45, 7-[(R)-1-(2,6-Dichloro-3-fluorophenyl)-ethoxy]-3-(1-isopropyl-1,2,3,6-tetrahydropyridin-4-yl)-furo[3,2-c]pyridin-6-ylamine], the IC50 in assay [1] and in assay [2] was less than 500 nM each time.

For the compound `Cn1c(Cc2ccccc2)ncc(-c2ccc(COc3c(N)ncc4c(Br)coc34)c(F)c2)c1=O` [Example 466, 5-[4-(6-Amino-3-bromofuro[3,2-c]pyridin-7-yloxymethyl)-3-fluorophenyl]-2-benzyl-3-methyl-3H-pyrimidin-4-one], the IC50 in assay [1] and in assay [2] was 500 to 5000 nM each time.

`COc1ccccc1CC(C)Oc1c(N)ncc2c(-c3cnn(C4CCNCC4)c3)coc12` (stereo not drawn) [Example 406, 7-[2-(2-Methoxyphenyl)-1-methylethoxy]-3-(1-piperidin-4-yl-1H-pyrazol-4-yl)furo[3,2-c]pyridin-6-ylamine]: the IC50 in assay [1] and in assay [2] was less than 500 nM each time.

`CC(Oc1c(N)ncc2c(-c3cnn(C4CCNCC4)c3)coc12)c1ccc(C(F)(F)F)cc1` (stereo not drawn) [Example 348, 3-(1-Piperidin-4-yl-1H-pyrazol-4-yl)-7-[1-(4-trifluoromethyl-phenyl)ethoxy]furo[3,2-c]pyridin-6-ylamine]: the IC50 is 500 to 5000 nM in assay [1] and less than 500 nM in assay [2].

As to `C[C@@H](Oc1c(N)ncc2c(-c3ccc(Cn4cccn4)cc3)coc12)c1c(Cl)ccc(F)c1Cl` [Example 110, 7-[(R)-1-(2,6-Dichloro-3-fluorophenyl)ethoxy]-3-(4-pyrazol-1-ylmethylphenyl)-furo[3,2-c]pyridin-6-ylamine], the IC50 in assay [1] and in assay [2] was 500 to 5000 nM throughout.

On to `C[C@H](Cc1ccccc1)Oc1c(N)ncc2c(-c3cnn(C4CCNCC4)c3)coc12` [Example 415, 7-((R)-1-Methyl-2-phenylethoxy)-3-(1-piperidin-4-yl-1H-pyrazol-4-yl)furo[3,2-c]pyridin-6-ylamine], for which the concentration for half-maximal inhibition (IC50) in assay [1] and in assay [2] was 500 to 5000 nM each time.

As for `C[C@@H](Oc1c(N)ncc2c(-c3cnn(C4CCNCC4)c3)coc12)c1ccccc1Cl` [Example 335, 7-[(R)-1-(2-Chlorophenyl)ethoxy]-3-(1-piperidin-4-yl-1H-pyrazol-4-yl)-furo[3,2-c]pyridin-6-ylamine], the IC50 was 500 to 5000 nM in assay [1] and less than 500 nM in assay [2].

Consider `Nc1ncc2c(-c3cnn(C4CCNCC4)c3)coc2c1O[C@H](c1ccccc1)C(F)(F)F` [Example 392, 3-(1-Piperidin-4-yl-1H-pyrazol-4-yl)-7-((R)-2,2,2-trifluoro-1-phenylethoxy)furo[3,2-c]pyridin-6-ylamine], for which the IC50 in assay [1] is 500 to 5000 nM; in assay [2], less than 500 nM.

As for `CNC(=O)CN1CC=C(c2coc3c(O[C@H](C)c4c(Cl)ccc(F)c4Cl)c(N)ncc23)CC1` [Example 201, 2-(4-{6-Amino-7-[(R)-1-(2,6-dichloro-3-fluorophenyl)ethoxy]-furo[3,2-c]pyridin-3-yl}-3,6-dihydro-2H-pyridin-1-yl)-N-methylacetamide], the half-inhibitory concentration (IC50) in assay [1] is 500 to 5000 nM; in assay [2], less than 500 nM.

In the case of `C[C@@H](Oc1c(N)ncc2c(C3=CCN(C(=O)c4ccn[nH]4)CC3)coc12)c1c(Cl)ccc(F)c1Cl` [Example 231, (4-{6-Amino-7-[(R)-1-(2,6-dichloro-3-fluorophenyl)ethoxy]-furo[3,2-c]pyridin-3-yl}-3,6-dihydro-2H-pyridin-1-yl)-(2H-pyrazol-3-yl)-methanone], the concentration for half-maximal inhibition (IC50) in assay [1] and in assay [2] was 500 to 5000 nM in each case.

For the compound `C[C@@H](Oc1c(N)ncc2c(C3=CCN(c4c(N)c(=O)c4=O)CC3)coc12)c1c(Cl)ccc(F)c1Cl` [Example 205, 3-Amino-4-(4-{6-amino-7-[(R)-1-(2,6-dichloro-3-fluorophenyl)ethoxy]-furo[3,2-c]pyridin-3-yl}-3,6-dihydro-2H-pyridin-1-yl)-cyclobut-3-ene-1,2-dione], the values for the IC50 in assay [1] and in assay [2] were 500 to 5000 nM and less than 500 nM, respectively.

Take `C[C@@H](Oc1c(N)ncc2c(-c3cc(C(=O)NC(C)(C)C)cs3)coc12)c1c(Cl)ccc(F)c1Cl` [Example 331, 5-{6-Amino-7-[(R)-1-(2,6-dichloro-3-fluorophenyl)ethoxy]furo[3,2-c]pyridin-3-yl}thiophene-3-carboxylic acid tert-butylamide]: the IC50 fell in the range of 5000 to 20000 nM in assay [1] and 500 to 5000 nM in assay [2].

`C[C@@H](Oc1c(N)ncc2c(-c3ccc(OCCCN(C)C)nc3)coc12)c1c(Cl)ccc(F)c1Cl` [Example 122, 7-[(R)-1-(2,6-Dichloro-3-fluorophenyl)ethoxy]-3-[6-(3-dimethylaminopropoxy)pyridin-3-yl]furo[3,2-c]pyridin-6-ylamine]: the half-maximal inhibitory concentration (IC50) in assay [1] and in assay [2] was less than 500 nM throughout.

In the case of `C[C@@H](Oc1c(N)ncc2c(-c3cncnc3)coc12)c1c(Cl)ccc(F)c1Cl` [Example 112, 7-[(R)-1-(2,6-Dichloro-3-fluorophenyl)ethoxy]-3-pyrimidin-5-ylfuro[3,2-c]pyridin-6-ylamine], the IC50 in assay [1] and in assay [2] was 500 to 5000 nM each time.

As for `Nc1ncc2c(-c3cnn(C4CCNCC4)c3)coc2c1OC/C=C/c1c(Cl)ccc(F)c1Cl` [Example 356, 7-[(E)-3-(2,6-Dichloro-3-fluorophenyl)allyloxy]-3-(1-piperidin-4-yl-1H-pyrazol-4-yl)furo[3,2-c]pyridin-6-ylamine], the IC50 in assay [1] and in assay [2] was less than 500 nM in each case.

Turning to `COc1ccc(-c2coc3c(O[C@H](C)c4c(Cl)ccc(F)c4Cl)c(N)ncc23)cc1` [Example 69, 7-[(R)-1-(2,6-Dichloro-3-fluorophenyl)ethoxy]-3-(4-methoxyphenyl)-furo[3,2-c]pyridin-6-ylamine], the concentration for half-maximal inhibition (IC50) in assay [1] and in assay [2] was 500 to 5000 nM in each case.

Regarding `C[C@@H](Oc1c(N)ncc2c(-c3cc(C(=O)N4CCN(C)CC4)cs3)coc12)c1c(Cl)ccc(F)c1Cl` [Example 332, (5-{6-Amino-7-[(R)-1-(2,6-dichloro-3-fluorophenyl)ethoxy]furo[3,2-c]pyridin-3-yl}thiophen-3-yl)-(4-methylpiperazin-1-yl)methanone], the values for the IC50 in assay [1] and in assay [2] were 5000 to 20000 nM and 500 to 5000 nM, respectively.

For `C[C@@H](Oc1c(N)ncc2c(C3=CCN(Cc4ccccc4)CC3)coc12)c1c(Cl)ccc(F)c1Cl` [Example 39, 3-(1-Benzyl-1,2,3,6-tetrahydropyridin-4-yl)-7-[(R)-1-(2,6-dichloro-3-fluorophenyl)-ethoxy]-furo[3,2-c]pyridin-6-ylamine], the IC50 in assay [1] is 500 to 5000 nM; in assay [2], less than 500 nM.

`COC(=O)N1CCC(n2cc(-c3coc4c(O[C@H](C)c5c(Cl)ccc(F)c5Cl)c(N)ncc34)cn2)CC1` [Example 274, Methyl 4-(4-{6-Amino-7-[(1R)-1-(2,6-dichloro-3-fluorophenyl)ethoxy]furo[3,2-c]pyridin-3-yl}-1H-pyrazol-1-yl)piperidine-1-carboxylate]: the IC50 in assay [1] and in assay [2] was 500 to 5000 nM throughout.

As to `C[C@@H](Oc1c(N)ncc2c(-c3ccc(C(=O)N4CCC(O)CC4)cc3)coc12)c1c(Cl)ccc(F)c1Cl` [Example 296, (4-{6-Amino-7-[(R)-1-(2,6-dichloro-3-fluorophenyl)ethoxy]furo[3,2-c]pyridin-3-yl}phenyl)-(4-hydroxypiperidin-1-yl)methanone], the IC50 in assay [1] and in assay [2] was 500 to 5000 nM in each case.
